According to ChEMBL document CHEMBL4507259 (2021):

What was measured:
[1] = target: Serine/threonine-protein kinase haspin (Homo sapiens) (UniProt Q8TF76); conditions: Compound concentration 1000.0 nM
[2] = target: 5-hydroxytryptamine receptor 1E (Homo sapiens) (UniProt P28566); conditions: Compound concentration 10.0 uM
[3] = target: Tyrosine-protein kinase Lck (Homo sapiens) (UniProt P06239); conditions: Compound concentration 1000.0 nM
[4] = test system: Tyrosine-protein kinase ABL1 (Homo sapiens), P00519 [F317L]; conditions: Compound concentration 1000.0 nM
[5] = target: Serine/threonine-protein kinase WNK1 (Homo sapiens) (UniProt Q9H4A3); conditions: Compound concentration 1000.0 nM
[6] = target: Macrophage colony-stimulating factor 1 receptor (Homo sapiens) (UniProt P07333); conditions: Compound concentration 1000.0 nM
[7] = target: Fibroblast growth factor receptor 3 (Homo sapiens) (UniProt P22607); conditions: Compound concentration 1000.0 nM
[8] = target: Mitogen-activated protein kinase kinase kinase 12 (Homo sapiens) (UniProt Q12852); conditions: Compound concentration 1000.0 nM
[9] = target: Serine/threonine-protein kinase LATS1 (Homo sapiens) (UniProt O95835); conditions: Compound concentration 1000.0 nM
[10] = target: Ribosomal protein S6 kinase alpha-1 (Homo sapiens) (UniProt Q15418); conditions: Compound concentration 1000.0 nM
[11] = target: Receptor tyrosine-protein kinase erbB-2 (Homo sapiens) (UniProt P04626); conditions: Compound concentration 1000.0 nM
[12] = target: Serine/threonine-protein kinase Nek5 (Homo sapiens) (UniProt Q6P3R8); conditions: Compound concentration 1000.0 nM
[13] = target: Mitogen-activated protein kinase 14 (Homo sapiens) (UniProt Q16539); conditions: Compound concentration 1000.0 nM
[14] = test system: Receptor-type tyrosine-protein kinase FLT3 (Homo sapiens), P36888 [UNDEFINED MUTATION]; conditions: Compound concentration 1000.0 nM
[15] = target: Activin receptor type-2B (Homo sapiens) (UniProt Q13705); conditions: Compound concentration 1000.0 nM
[16] = target: Estrogen receptor (Homo sapiens) (UniProt P03372); assay: Estrogen ER alpha (h) CEREP ligand profiling; conditions: filed as agonist, Compound concentration 10.0 uM
[17] = target: Serine/threonine-protein kinase PAK 5 (Homo sapiens) (UniProt Q9P286); conditions: Compound concentration 1000.0 nM
[18] = target: Myosin-IIIb (Homo sapiens) (UniProt Q8WXR4); conditions: Compound concentration 1000.0 nM
[19] = target: Serine/threonine-protein kinase NLK (Homo sapiens) (UniProt Q9UBE8); conditions: Compound concentration 1000.0 nM
[20] = target: Serine/threonine-protein kinase BRSK1 (Homo sapiens) (UniProt Q8TDC3); conditions: Compound concentration 1000.0 nM
[21] = target: Serine/threonine-protein kinase Sgk2 (Homo sapiens) (UniProt Q9HBY8); conditions: Compound concentration 1000.0 nM
[22] = test system: Mast/stem cell growth factor receptor Kit (Homo sapiens), P10721 [V559D]; conditions: Compound concentration 1000.0 nM
[23] = test system: Tyrosine-protein kinase ABL1 (Homo sapiens), P00519 [Q252H]; conditions: Compound concentration 1000.0 nM
[24] = target: Serine/threonine-protein kinase 17B (Homo sapiens) (UniProt O94768); conditions: Compound concentration 1000.0 nM
[25] = target: Serine/threonine-protein kinase RIO3 (Homo sapiens) (UniProt O14730); conditions: Compound concentration 1000.0 nM
[26] = target: Serine/threonine-protein kinase Nek7 (Homo sapiens) (UniProt Q8TDX7); conditions: Compound concentration 1000.0 nM
[27] = target: Casein kinase II subunit alpha (Homo sapiens) (UniProt P68400); conditions: Compound concentration 1000.0 nM
[28] = target: Fibroblast growth factor receptor 1 (Homo sapiens) (UniProt P11362); conditions: Compound concentration 1000.0 nM
[29] = test system: Phosphatidylinositol 4,5-bisphosphate 3-kinase catalytic subunit alpha isoform (Homo sapiens), P42336 [H1047L]; conditions: Compound concentration 1000.0 nM
[30] = target: Serine/threonine-protein kinase 32C (Homo sapiens) (UniProt Q86UX6); conditions: Compound concentration 1000.0 nM
[31] = test system: Phosphatidylinositol 4,5-bisphosphate 3-kinase catalytic subunit alpha isoform (Homo sapiens), P42336 [H1047Y]; conditions: Compound concentration 1000.0 nM
[32] = test system: Epidermal growth factor receptor (Homo sapiens), P00533 [UNDEFINED MUTATION]; conditions: Compound concentration 1000.0 nM
[33] = target: Macrophage-stimulating protein receptor (Homo sapiens) (UniProt Q04912); conditions: Compound concentration 1000.0 nM
[34] = target: Myotonin-protein kinase (Homo sapiens) (UniProt Q09013); conditions: Compound concentration 1000.0 nM
[35] = target: SRSF protein kinase 1 (Homo sapiens) (UniProt Q96SB4); conditions: Compound concentration 1000.0 nM
[36] = target: Ephrin type-A receptor 3 (Homo sapiens) (UniProt P29320); conditions: Compound concentration 1000.0 nM
[37] = target: Activin receptor type-1B (Homo sapiens) (UniProt P36896); conditions: Compound concentration 1000.0 nM
[38] = target: Vascular endothelial growth factor receptor 2 (Homo sapiens) (UniProt P35968); conditions: Compound concentration 1000.0 nM
[39] = target: Atypical kinase COQ8B, mitochondrial (Homo sapiens) (UniProt Q96D53); conditions: Compound concentration 1000.0 nM
[40] = target: Serine/threonine-protein kinase PRP4 homolog (Homo sapiens) (UniProt Q13523); conditions: Compound concentration 1000.0 nM
[41] = target: Serine/threonine-protein kinase D1 (Homo sapiens) (UniProt Q15139); conditions: Compound concentration 1000.0 nM
[42] = target: Insulin receptor (Homo sapiens) (UniProt P06213); conditions: Compound concentration 1000.0 nM
[43] = target: Serine/threonine-protein kinase 4 (Homo sapiens) (UniProt Q13043); conditions: Compound concentration 1000.0 nM
[44] = target: Dual specificity protein kinase CLK1 (Homo sapiens) (UniProt P49759); conditions: Compound concentration 1000.0 nM
[45] = test system: Epidermal growth factor receptor (Homo sapiens), P00533 [L858R]; conditions: Compound concentration 1000.0 nM

Chain of Serine/threonine-protein kinase Nek7 (Homo sapiens) (Q8TDX7 whole entry, looked up): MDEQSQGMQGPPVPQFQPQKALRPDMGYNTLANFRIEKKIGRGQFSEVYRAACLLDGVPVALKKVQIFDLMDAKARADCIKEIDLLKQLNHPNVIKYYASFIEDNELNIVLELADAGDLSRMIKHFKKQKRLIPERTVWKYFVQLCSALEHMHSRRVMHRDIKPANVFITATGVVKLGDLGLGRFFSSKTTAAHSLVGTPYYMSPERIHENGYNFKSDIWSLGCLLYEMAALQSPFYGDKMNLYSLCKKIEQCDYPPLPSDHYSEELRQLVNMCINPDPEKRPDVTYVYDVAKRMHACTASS
Chain of Activin receptor type-2B (Homo sapiens) (Q13705 whole entry): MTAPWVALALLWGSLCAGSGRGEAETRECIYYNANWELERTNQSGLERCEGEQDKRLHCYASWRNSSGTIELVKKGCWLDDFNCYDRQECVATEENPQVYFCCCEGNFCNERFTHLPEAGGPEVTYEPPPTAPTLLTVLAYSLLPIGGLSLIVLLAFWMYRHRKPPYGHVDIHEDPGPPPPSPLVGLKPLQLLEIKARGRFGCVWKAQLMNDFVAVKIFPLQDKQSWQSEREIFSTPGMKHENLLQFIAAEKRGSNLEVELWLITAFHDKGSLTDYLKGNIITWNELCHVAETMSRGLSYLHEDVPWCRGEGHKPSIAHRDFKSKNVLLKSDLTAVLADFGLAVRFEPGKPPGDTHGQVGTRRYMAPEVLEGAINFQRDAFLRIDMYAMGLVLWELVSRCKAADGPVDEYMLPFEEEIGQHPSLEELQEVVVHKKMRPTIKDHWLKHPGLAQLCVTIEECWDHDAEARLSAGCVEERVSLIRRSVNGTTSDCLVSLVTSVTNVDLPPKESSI
Chain of Ribosomal protein S6 kinase alpha-1 (Homo sapiens) (Q15418 whole entry): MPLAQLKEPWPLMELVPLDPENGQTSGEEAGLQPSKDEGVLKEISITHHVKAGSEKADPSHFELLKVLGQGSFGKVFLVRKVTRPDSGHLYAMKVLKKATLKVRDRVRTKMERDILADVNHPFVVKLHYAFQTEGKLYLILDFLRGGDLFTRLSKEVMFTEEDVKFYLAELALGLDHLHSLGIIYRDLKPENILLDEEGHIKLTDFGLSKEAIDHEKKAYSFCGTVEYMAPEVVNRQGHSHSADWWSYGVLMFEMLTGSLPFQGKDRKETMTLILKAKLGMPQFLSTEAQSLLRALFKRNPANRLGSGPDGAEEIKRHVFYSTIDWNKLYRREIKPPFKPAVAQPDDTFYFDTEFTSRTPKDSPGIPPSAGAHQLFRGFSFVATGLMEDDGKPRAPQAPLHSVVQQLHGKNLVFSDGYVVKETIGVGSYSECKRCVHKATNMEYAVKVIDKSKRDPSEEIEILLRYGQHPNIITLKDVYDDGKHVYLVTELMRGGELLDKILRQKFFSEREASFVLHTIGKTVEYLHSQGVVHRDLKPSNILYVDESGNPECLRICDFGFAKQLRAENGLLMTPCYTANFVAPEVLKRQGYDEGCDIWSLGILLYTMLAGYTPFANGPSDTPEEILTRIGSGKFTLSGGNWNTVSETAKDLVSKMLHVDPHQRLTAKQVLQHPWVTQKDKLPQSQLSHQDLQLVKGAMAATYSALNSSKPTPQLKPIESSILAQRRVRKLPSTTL
Chain of Macrophage-stimulating protein receptor (Homo sapiens) (Q04912 25-304 limits assumed): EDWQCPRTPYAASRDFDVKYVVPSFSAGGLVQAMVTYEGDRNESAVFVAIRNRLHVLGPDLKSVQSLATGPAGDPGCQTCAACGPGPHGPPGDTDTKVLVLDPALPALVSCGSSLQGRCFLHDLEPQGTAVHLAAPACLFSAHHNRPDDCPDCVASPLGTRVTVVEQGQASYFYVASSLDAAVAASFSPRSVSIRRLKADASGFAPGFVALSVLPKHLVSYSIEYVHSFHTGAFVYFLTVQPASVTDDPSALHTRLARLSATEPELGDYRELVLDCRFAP
Chain of Macrophage-stimulating protein receptor (Homo sapiens) (Q04912 310-1400 limits assumed): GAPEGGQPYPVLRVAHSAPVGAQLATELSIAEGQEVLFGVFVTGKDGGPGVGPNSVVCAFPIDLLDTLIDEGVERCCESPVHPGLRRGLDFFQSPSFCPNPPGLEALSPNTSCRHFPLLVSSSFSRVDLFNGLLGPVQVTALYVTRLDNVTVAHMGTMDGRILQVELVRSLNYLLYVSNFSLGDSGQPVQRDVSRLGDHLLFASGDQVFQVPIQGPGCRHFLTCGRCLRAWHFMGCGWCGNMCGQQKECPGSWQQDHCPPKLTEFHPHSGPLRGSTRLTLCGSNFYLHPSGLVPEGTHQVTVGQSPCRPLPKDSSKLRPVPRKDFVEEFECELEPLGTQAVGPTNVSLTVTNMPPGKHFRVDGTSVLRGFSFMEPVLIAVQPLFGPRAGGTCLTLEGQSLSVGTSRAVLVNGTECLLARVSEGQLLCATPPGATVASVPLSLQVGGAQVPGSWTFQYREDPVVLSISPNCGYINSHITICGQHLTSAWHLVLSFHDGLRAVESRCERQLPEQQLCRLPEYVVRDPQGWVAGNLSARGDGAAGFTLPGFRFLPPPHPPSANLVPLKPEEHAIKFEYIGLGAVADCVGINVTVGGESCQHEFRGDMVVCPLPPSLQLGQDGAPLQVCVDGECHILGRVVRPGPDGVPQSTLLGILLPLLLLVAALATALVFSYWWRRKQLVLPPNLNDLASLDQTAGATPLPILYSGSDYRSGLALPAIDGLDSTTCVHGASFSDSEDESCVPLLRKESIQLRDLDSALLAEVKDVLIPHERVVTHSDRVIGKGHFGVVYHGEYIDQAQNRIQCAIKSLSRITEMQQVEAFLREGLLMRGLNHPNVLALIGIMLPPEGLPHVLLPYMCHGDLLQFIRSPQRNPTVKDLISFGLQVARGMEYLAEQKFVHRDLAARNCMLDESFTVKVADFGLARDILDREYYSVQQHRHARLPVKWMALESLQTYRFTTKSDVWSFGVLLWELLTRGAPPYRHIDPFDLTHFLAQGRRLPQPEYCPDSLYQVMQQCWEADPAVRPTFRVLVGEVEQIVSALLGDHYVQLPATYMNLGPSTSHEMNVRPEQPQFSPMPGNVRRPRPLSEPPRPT
Chain of Casein kinase II subunit alpha (Homo sapiens) (P68400 whole entry, looked up): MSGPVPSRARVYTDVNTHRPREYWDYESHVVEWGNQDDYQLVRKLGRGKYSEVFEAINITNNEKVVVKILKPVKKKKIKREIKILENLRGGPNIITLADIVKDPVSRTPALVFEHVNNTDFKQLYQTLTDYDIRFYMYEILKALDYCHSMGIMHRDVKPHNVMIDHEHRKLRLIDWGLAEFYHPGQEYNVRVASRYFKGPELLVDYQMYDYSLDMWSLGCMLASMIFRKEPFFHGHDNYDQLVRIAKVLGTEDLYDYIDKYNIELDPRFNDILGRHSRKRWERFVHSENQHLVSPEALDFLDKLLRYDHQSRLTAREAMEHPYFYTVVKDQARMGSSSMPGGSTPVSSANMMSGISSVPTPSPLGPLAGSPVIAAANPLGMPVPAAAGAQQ
Chain of Myotonin-protein kinase (Homo sapiens) (Q09013 whole entry): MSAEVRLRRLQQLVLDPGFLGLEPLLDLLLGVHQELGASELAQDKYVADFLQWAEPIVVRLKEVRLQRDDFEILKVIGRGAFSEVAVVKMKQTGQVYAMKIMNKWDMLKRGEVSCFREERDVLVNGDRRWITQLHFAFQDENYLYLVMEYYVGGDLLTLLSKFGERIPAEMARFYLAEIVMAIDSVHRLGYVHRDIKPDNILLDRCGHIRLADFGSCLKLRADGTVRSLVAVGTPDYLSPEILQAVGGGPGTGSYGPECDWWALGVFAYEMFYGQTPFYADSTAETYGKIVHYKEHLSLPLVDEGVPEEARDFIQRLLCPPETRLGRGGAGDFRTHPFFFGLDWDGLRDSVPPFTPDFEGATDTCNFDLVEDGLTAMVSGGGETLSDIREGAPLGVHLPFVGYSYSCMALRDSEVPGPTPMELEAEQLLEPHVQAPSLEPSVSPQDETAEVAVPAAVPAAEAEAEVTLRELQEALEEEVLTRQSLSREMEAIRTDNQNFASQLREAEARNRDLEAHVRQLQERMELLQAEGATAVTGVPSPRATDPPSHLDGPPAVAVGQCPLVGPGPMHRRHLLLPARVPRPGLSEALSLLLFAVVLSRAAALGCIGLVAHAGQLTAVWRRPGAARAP
Chain of Mitogen-activated protein kinase 14 (Homo sapiens) (Q16539 whole entry): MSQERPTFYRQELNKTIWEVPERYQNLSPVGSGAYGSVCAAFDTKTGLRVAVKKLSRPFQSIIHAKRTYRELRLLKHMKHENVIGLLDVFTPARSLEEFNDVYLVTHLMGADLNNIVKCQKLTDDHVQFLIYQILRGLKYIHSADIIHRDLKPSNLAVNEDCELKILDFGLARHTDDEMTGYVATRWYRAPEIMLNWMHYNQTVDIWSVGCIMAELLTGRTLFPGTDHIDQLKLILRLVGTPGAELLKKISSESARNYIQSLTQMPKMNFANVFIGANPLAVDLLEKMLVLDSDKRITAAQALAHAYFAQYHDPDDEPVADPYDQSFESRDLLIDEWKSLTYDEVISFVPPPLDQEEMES
Chain of Serine/threonine-protein kinase Sgk2 (Homo sapiens) (Q9HBY8 whole entry): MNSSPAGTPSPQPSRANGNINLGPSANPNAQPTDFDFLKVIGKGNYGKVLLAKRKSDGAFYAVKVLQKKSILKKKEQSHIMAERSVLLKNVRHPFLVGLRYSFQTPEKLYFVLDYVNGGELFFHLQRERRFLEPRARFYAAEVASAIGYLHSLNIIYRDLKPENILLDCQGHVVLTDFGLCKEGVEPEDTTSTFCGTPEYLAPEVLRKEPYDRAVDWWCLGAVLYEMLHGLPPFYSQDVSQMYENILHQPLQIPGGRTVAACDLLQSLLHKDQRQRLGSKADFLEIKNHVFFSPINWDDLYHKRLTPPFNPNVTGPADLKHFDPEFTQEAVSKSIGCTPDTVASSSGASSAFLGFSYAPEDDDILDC

CNC(=O)Nc1ccc2c(c1)CC[C@@]21OC(=O)N(CC(=O)N(Cc2ccc(F)cc2)[C@@H](C)C(F)(F)F)C1=O [A-485]
inactive: residual activity [1] 100% | inhibition [2] 4.23% | residual activity [3] 84% | residual activity [4] 77% | residual activity [5] 93% | residual activity [6] 99% | residual activity [7] 82% | residual activity [8] 100% | residual activity [9] 60% | residual activity [10] 88% | residual activity [11] 100% | residual activity [12] 100% | residual activity [13] 100% | residual activity [14] 84% | residual activity [15] 96% | inhibition [16] 5% | residual activity [17] 100% | residual activity [18] 88% | residual activity [19] 82% | residual activity [20] 97% | residual activity [21] 100% | residual activity [22] 100% | residual activity [23] 81% | residual activity [24] 100% | residual activity [25] 89% | residual activity [26] 91% | residual activity [27] 63% | residual activity [28] 82% | residual activity [29] 95% | residual activity [30] 88% | residual activity [31] 91% | residual activity [32] 90% | residual activity [33] 77% | residual activity [34] 100% | residual activity [35] 95% | residual activity [36] 100% | residual activity [37] 86% | residual activity [38] 83% | residual activity [39] 100% | residual activity [40] 86% | residual activity [41] 99% | residual activity [42] 81% | residual activity [43] 100% | residual activity [44] 69% | residual activity [45] 96%

CNC(=O)Nc1ccc2c(c1)[C@@]1(CC2)OC(=O)N(CC(=O)N(Cc2ccc(F)cc2)[C@@H](C)C(F)(F)F)C1=O [A-486]
inactive: residual activity [1] 83% | inhibition [2] 0.33% | residual activity [3] 86% | residual activity [4] 78% | residual activity [5] 79% | residual activity [6] 98% | residual activity [7] 92% | residual activity [8] 100% | residual activity [9] 59% | residual activity [10] 100% | residual activity [11] 98% | residual activity [12] 95% | residual activity [13] 100% | residual activity [14] 87% | residual activity [15] 100% | inhibition [16] -10% | residual activity [17] 100% | residual activity [18] 100% | residual activity [19] 77% | residual activity [20] 100% | residual activity [21] 88% | residual activity [22] 100% | residual activity [23] 97% | residual activity [24] 77% | residual activity [25] 100% | residual activity [26] 100% | residual activity [27] 60% | residual activity [28] 84% | residual activity [29] 96% | residual activity [30] 100% | residual activity [31] 100% | residual activity [32] 100% | residual activity [33] 100% | residual activity [34] 92% | residual activity [35] 100% | residual activity [36] 100% | residual activity [37] 100% | residual activity [38] 84% | residual activity [39] 95% | residual activity [40] 90% | residual activity [41] 100% | residual activity [42] 73% | residual activity [43] 100% | residual activity [44] 82% | residual activity [45] 100%
